According to patent EP0882016B1, “ALKYLATED STYRENES AS PRODRUGS TO COX-2 INHIBITORS” (Merck Frosst Canada & Co., priority 1996, dated 1997):

Key:
[1] = Rat plasma levels, per os pharmacokinetics in rats; type: in vivo, Male Sprague Dawley rats; details: maximum rat plasma concentration of the active COX-2 inhibitor (corresponding carbonyl compound) after 20 mg/kg oral dose of the indicated prodrug
Description: The animals are housed, fed and cared for according to the Guidelines of the Canadian Council on Animal Care.
Male Sprague Dawley rats (325-375 g) are fasted overnight prior to each PO blood level study.
The rats are placed in the restrainer one at a time and the box is firmly secured. The zero blood sample is obtained by nicking a small (1 mm or less) piece off the tip of the tail. The tail is then stroked with a firm but gentle motion from the top to the bottom to milk out the blood. Approximately 1 mL of blood is collected into a heparinized vacutainer tube.
Compounds are prepared as required, in a standard dosing volume of 10mL/kg, and administered orally by passing a 16 gauge, 3" gavaging needle into the stomach.
Subsequent bleeds are taken in the same manner as the zero bleed except that there is no need to nick the tail again. The tail is cleaned with a piece of gauze and milked/stroked as described above into the appropriately labelled tubes.
Immediately after sampling, blood is centrifuged, separated, put into clearly marked vials and stored in a freezer until analysed.
Typical time points for determination of rat blood levels after PO dosing are: 0, 15min, 30min, 1h, 2h, 4h, 6h
After the 4hr time point bleed, food is provided to the rats ad libitum. Water is provided at all times during the study.
The following vehicles may be used in PO rat blood level determinations:
Compounds for PO blood levels can be in suspension form. For better dissolution, the solution can be placed in a sonicator for approximately 5 minutes.
For analysis, aliquots are diluted with an equal volume of acetonitrile and centrifuged to remove protein precipitate. The supernatant is injected directly onto a C-18 HPLC column with UV detection. Quantitation is done relative to a clean blood sample spiked with a known quantity of drug. Bioavailability (F) is assessed by comparing area under the curve (AUC) i.v. versus p.o. F =(AUCpo)/(AUCiv)x(DOSEiv)/(DOSEpo)x 100% [formula] […]

Rat Paw Edema = assay: Rat paw edema assay (carrageenan); type: in vivo, Male Sprague-Dawley rats; details: dose of prodrug, po, required to reduce edema formation by 50% as compared to the vehicle control
Method: Male Sprague-Dawley rats (150-200 g) are fasted overnight and are given, po, either vehicle (1% methocel or 5% Tween 80) or a test compound. One hr later, a line is drawn using a permanent marker at the level above the ankle in one hind paw to define the area of the paw to be monitored. The paw volume (V0) is measured using a plethysmometer (Ugo-Basile, Italy) based on the principle of water displacement. The animals are then injected subplantarly with 50 µl of 1% carrageenan solution in saline (FMC Corp, Maine) into the paw using an insulin syringe with a 25-gauge needle (i.e. 500 µg carrageenan per paw). Three hr later, the paw volume (V3) is measured and the increases in paw volume (V3 - VO) are calculated. The animals are sacrificed by CO2 asphyxiation and the absence or presence of stomach lesions scored. Data is compared with the vehicle-control values and percent inhibition calculated. All treatment groups are coded to eliminate observer bias.
Compounds of the present invention are prodrugs of inhibitors of COX-2 and are thereby useful in the treatment of COX-2 mediated diseases as enumerated above. The extent of conversion of these compounds to the active COX-2 inhibitors may be seen in the representative results shown in Table III along with their antiinflammatory activity. The plasma levels indicated are the maximum rat plasma concentrations of the active COX-2 inhibitor observed when the rat was treated with a 20 mg/kg oral dose of the indicated prodrug. The ED50 values in the rat paw edema assay represent the dose of prodrug required to reduce edema formation by 50% as compared to the vehicle control.

SMILES | Plasma Levels (µM)* [1] [µM] | Rat Paw Edema (ED50, mg/kg) (Rat Paw Edema) [mg/kg]
CC(C)(O)/C(=C(\CO)c1cccc(F)c1)c1ccc(S(C)(=O)=O)cc1 [Example 1, 2-(3-Fluorophenyl)-4-methyl-3-(4-(methylsulfonyl)-phenyl)-2-(Z)-penten-1,4-diol] | 3.5 | 10
COC(C)(C)/C(=C(\C(=O)N(C)C)c1cccc(F)c1)c1ccc(S(C)(=O)=O)cc1 [Example 4, N,N-Dimethyl-2-(3-fluorophenyl)-4-methoxy-4-methyl-3-(4-(methylsulfonyl)phenyl)-2-(Z)-pentenamide] | 10 | 1.6
COC(=O)/C(=C(/c1ccc(S(C)(=O)=O)cc1)C(C)(C)OC)c1cccc(F)c1 [Example 6, Methyl 2-(3-fluorophenyl)-4-methoxy-4-methyl-3-(4-(methylsulfonyl)phenyl)-2-(Z)-pentenoate] | 6 | 2.1
